Measured values taken from patent US20240293413A1, “COMPOUND AND METHOD FOR TREATING CHEMOTHERAPY-RELATED GASTROINTESTINAL SIDE EFFECTS” (ONQUALITY PHARMACEUTICALS CHINA LTD., priority 2021, published 2024).

Tests used:
Type in all cases: in vivo
[1] = system: Chemotherapeutic agent-caused diarrhea models of Balb/c mice; assay: Examples 1-229 (Table 3): oral CDK inhibitor, relief of diarrhea caused by a chemotherapeutic agent;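 further: percent of treated mice whose diarrhea grade fell below chemotherapy-group average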
[2] = system: diarrhea caused by the continuous administration of a chemotherapeutic agent in Balb/c mice; assay: Examples 444-469 (Table 9): oral CDK inhibitor, diarrhea caused by continuous administration of a chemotherapeutic agent
Text: Balb/c mice were fed for 1 week, and then divided into groups. The experiment was divided into a control group, a chemotherapeutic agent group, and a CDK inhibitor group, each of which comprised 10 mice, to perform the administration experiment, for which the administration dosage, mode, time and frequency were shown in Table 9. The control group: being intragastrically administered with the same solvent as that used in the CDK inhibitor group (the time was shown in Table 9), and then being injected/intragastrically administered with the same solvent as that used in the chemotherapeutic agent group (the administration mode was shown in Table 9): the chemotherapeutic agent group: being intragastrically administered with the same solvent as that used in the CDK inhibitor group (the time was shown in Table 9), and then being injected/intragastrically administered with the chemotherapeutic agent (the type, administration mode, dosage and duration time were shown in Table 9): the CDK inhibitor group: being intragastrically administered with the CDK inhibitor (the time was shown in Table 9), and then being administered with the chemotherapeutic agent (the type, administration mode, dosage and duration time were shown in Table 9).
The scoring of diarrhea can refer to the method of Akinobu Kurita (Cancer Chemother Pharmacol 2000: 46:211-20.), Grade 0: normal feces: Grade 1: mild diarrhea, the stools is slightly wet and soft: Grade 2: moderate diarrhea, loose stools and mild perianal contamination: Grade 3: severe diarrhea, watery stools and accompanied by severe perianal staining (see FIG. 1). It is regarded as effective remission when the diarrhea grading of mice in the CDK inhibitor group is reduced compared with the average diarrhea grading of mice in the chemotherapeutic agent group.
The diarrhea grading of mice was observed and recorded every day. At the end of the experiment, the number of mice in the CDK inhibitor group whose diarrhea grading was lower than that of mice in the chemotherapeutic agent group was recorded. Table 9 lists various animal experiment combinations of chemotherapeutic agents and CDK inhibitors, as well as the corresponding experimental results. (Relative remission rate %=the number of mice in the CDK inhibitor group whose diarrhea has been effectively relieved/the total number of mice in the CDK inhibitor group*100%. The establishment rate of diarrhea model in the chemotherapeutic agent group was 50%-80%, that is, about 5-8 of 10 mice developed diarrhea during the experiment, and there were cases of individual mice death or not developing diarrhea.)

[3] = system: diarrhea caused by a chemotherapeutic agent in Balb/c mice; assay: Examples 382-405 (Table 7): various administration modes of the CDK inhibitor, relief of diarrhea caused by a chemotherapeutic agent
Text: Balb/c mice were fed for 1 week, and then divided into groups. The experiment was divided into a control group, a chemotherapeutic agent group, CDK inhibitor groups (including an oral administration group of a CDK inhibitor, an intraperitoneal injection group of a CDK inhibitor, an intramuscular injection group of a CDK inhibitor, a local administration group of a CDK inhibitor), each of which comprised 10 mice, to perform the administration experiment, for which the administration dosage, mode, time and frequency were shown in Table 7. The control group: being administered with the same solvent as that used in the CDK inhibitor group (the time and mode were shown in Table 7), and then being injected/intragastrically administered with the same solvent as that used in the chemotherapeutic agent group (the administration mode was shown in Table 7): the chemotherapeutic agent group: being administered with the same solvent as that used in the CDK inhibitor group (the time and mode were shown in Table 7), and then being injected/intragastrically administered with the chemotherapeutic agent (the type, administration mode and dosage were shown in Table 7): the oral administration group of the CDK inhibitor: being intragastrically administered with the CDK inhibitor (the time was shown in Table 7), and then being administered with the chemotherapeutic agent (the mode and dosage were shown in Table 7): the intraperitoneal injection group of the CDK inhibitor: being intraperitoneally injected with the CDK inhibitor (the time was shown in Table 7), and then being administered with the chemotherapeutic agent (the mode and dosage were shown in Table 7): the intramuscular injection group of the CDK inhibitor: being intramuscularly injected with the CDK inhibitor (the time was shown in Table 7), and then being administered with the chemotherapeutic agent (the mode and dosage were shown in Table 7); and the local administration group of the CDK inhibitor: the hair on the abdomen of mice was shaved (about 2 cm*2 cm), being applied with the CDK inhibitor (the time was shown in Table 7), and then being administered with the chemotherapeutic agent (the mode and dosage were shown in Table 7).
The diarrhea grading of mice was observed and recorded every day.

## CN(C)C(=O)c1cc2cnc(Nc3ccc(N4CCNCC4)cn3)nc2n1C1CCCC1 [Ribociclib]
[1]; Example 45, Fluorouracil (5-Fu) intravenous injection 175 mg/kg single, CDK inhibitor oral 200 mg/kg single 0.5 h before, cycle 8 days
  Relative remission rate (%): 40%
[1]; Example 113, Irinotecan (CPT-11) oral administration 300 mg/kg single, CDK inhibitor oral 100 mg/kg single 24 h before, cycle 11 days
  Relative remission rate (%): 60%
[1]; Example 167, Docetaxel (DTX) intravenous injection 10 mg/kg single, CDK inhibitor oral 200 mg/kg single 9 h before, cycle 8 days
  Relative remission rate (%): 80%
[1]; Example 229, Etoposide 60 mg/kg and carboplatin 5 mg/kg intraperitoneal injection single, CDK inhibitor oral 200 mg/kg single, 12 h before, 10 days
  Relative remission rate (%): 50%
[2]; Example 456, Fluorouracil (5-Fu) intravenous injection 70 mg/kg once a day, for 3 days, CDK inhibitor oral 200 mg/kg once a day, for 3 days, 4 h before, cycle 8 days
  Relative remission rate: 80%
[2]; continuous administration of fluorouracil and capecitabine for 7 days or above
  relieving effect on diarrhea: not significant
[2]; continuous administration of fluorouracil for less than 7 days
  relieving effect on diarrhea: significant relieving effects
[3]; Example 389, Carboplatin (CBP) intraperitoneal injection 120 mg/kg single, CDK inhibitor intraperitoneal injection 200 mg/kg single, 0.5 h before, cycle 10 days
  Relative remission rate of other administration mode: 10%
[3]; Example 389, Carboplatin (CBP) intraperitoneal injection 120 mg/kg single, CDK inhibitor oral 200 mg/kg single, 0.5 h before, cycle 10 days
  Relative remission rate of oral administration: 30%
[3]; Example 390, Carboplatin (CBP) intraperitoneal injection 120 mg/kg single, CDK inhibitor intraperitoneal injection 200 mg/kg single, 4 h before, cycle 10 days
  Relative remission rate of other administration mode: 10%
[3]; Example 390, Carboplatin (CBP) intraperitoneal injection 120 mg/kg single, CDK inhibitor oral 200 mg/kg single, 4 h before, cycle 10 days
  Relative remission rate of oral administration: 50%
[3]; Example 391, Carboplatin (CBP) intraperitoneal injection 120 mg/kg single, CDK inhibitor intraperitoneal injection 200 mg/kg single, 8 h before, cycle 10 days
  Relative remission rate of other administration mode: 10%
[3]; Example 391, Carboplatin (CBP) intraperitoneal injection 120 mg/kg single, CDK inhibitor oral 200 mg/kg single, 8 h before, cycle 10 days
  Relative remission rate of oral administration: 50%
[3]; Example 392, Carboplatin (CBP) intraperitoneal injection 120 mg/kg single, CDK inhibitor intraperitoneal injection 200 mg/kg single, 12 h before, cycle 10 days
  Relative remission rate of other administration mode: 20%
[3]; Example 392, Carboplatin (CBP) intraperitoneal injection 120 mg/kg single, CDK inhibitor oral 200 mg/kg single, 12 h before, cycle 10 days
  Relative remission rate of oral administration: 40%
[3]; Example 393, Carboplatin (CBP) intraperitoneal injection 120 mg/kg single, CDK inhibitor intraperitoneal injection 200 mg/kg single, 24 h before, cycle 10 days
  Relative remission rate of other administration mode: 10%
[3]; Example 393, Carboplatin (CBP) intraperitoneal injection 120 mg/kg single, CDK inhibitor oral 200 mg/kg single, 24 h before, cycle 10 days
  Relative remission rate of oral administration: 40%
[3]; Example 401, Gemcitabine (GEM) oral administration 300 mg/kg single, CDK inhibitor local administration 100 mg/kg single, 24 h before, cycle 8 days
  Relative remission rate of other administration mode: 20%
[3]; Example 401, Gemcitabine (GEM) oral administration 300 mg/kg single, CDK inhibitor oral 100 mg/kg single, 24 h before, cycle 8 days
  Relative remission rate of oral administration: 50%
[3]; diarrhea caused by docetaxel, carboplatin, gemcitabine, and gemcitabine plus carboplatin, under certain conditions, effect of oral administration most significant
  relief of diarrhea by oral, injection and local administration: can relieve diarrhea
